# Measurements from patent US20250032575A1, “USE OF A MURAMYL PEPTIDE IN THE TREATMENT OF SKELETAL GROWTH RETARDATION” (UNIVERSITE CLAUDE BERNARD LYON 1, priority 2021, published 2025).
# Experiments:
# Assay type in all cases: in vivo, mice
# [1] = system: chronically undernourished mouse model; test: body length (nose-anus) growth in chronically undernourished mouse model; settings: for growth rate / relative growth (% length gain, day 21 = 100%) / total height: male mice on low-protein, low-fat diet, day 21 to 56, oral, 5 times a week, vs placebo; for skeletal growth (linear or longitudinal): summary of examples 1 and 2, oral administration, juvenile mice on protein-deficient diet mimicking chronic undernutrition
# Method: (§1) Conventional C57B1/6j laboratory mice have been bred in the Gnotobiology Laboratory for more than 10 generations. Mice have been maintained in IVC cages (Tecniplast, Italy), exposed to 12:12 h light-dark cycles, supplied with tap water and fed ad libitum with sterile diet V1124-300 (Ssniff Spezialdiaten GmbH) (irradiated −25 kGy, Bioster, Czech Republic). The mice have been mated and after delivery, the litter size was reduced to 6 pups per mother. On day 21, male mice have been weaned on the experimental low-protein, low-fat diet (3.5 kcal/gram, protein: 4.1 wt %, carbohydrate: 78 wt %, fat: 2 wt %) and regularly monitored until 56 days after birth (adult age in mice). Mice weaned on the low-protein, low-fat diet have been treated 5 times a week with placebo, composition A containing MDP or composition B containing Murabutide. At the end of the experiment, food and bedding were removed at 8 am and the mice have been sacrificed after 5 hours of fasting by isoflurane inhalation and cervical dislocation. All animals have been sacrificed within one hour between 1 and 2 p.m.
# (§2) The daily treatment dose was 30 μL placebo or for MDP 25 μg in 30 μL placebo and for murabutide 28 μg in 30 μL placebo. Each of the compositions has been administered by pipette to the mouse's tongue. The mouse has been maintained until the composition had been swallowed completely.
# (§3) To measure body length, the mice have briefly been anaesthetised with isoflurane (Piramal Healthcare, UK). The anaesthetised mouse has been held by the tail and the nose-anus length has been measured using a ruler. Relative length has been calculated as % length gain, where body length at day 21 (weaning) has been set to 100%. The length growth rate has been calculated by dividing the absolute length gain from day 21 to day 56 by the number of days (i.e. 35). Femur and tibia bones have been dissected at sacrifice, fixed in 4% paraformaldehyde—PBS overnight at 4° C., washed with PBS and preserved in 70% ethanol. Bone length has been measured using a digital caliper (Festa).
# Conventional C57B1/6j laboratory mice have been bred in the Gnotobiology Laboratory for more than 10 generations. Mice have been maintained in IVC cages (Tecniplast, Italy), exposed to 12:12 h light-dark cycles, supplied with tap water and fed ad libitum with sterile diet V1124-300 (Ssniff Spezialdiäten GmbH) (irradiated −25 kGy, Bioster, Czech Republic). The mice have been mated and after delivery the litter size was reduced to 6 pups per mother. On day 21, male mice have been weaned on the experimental low-protein, low-fat diet (3.5 kcal/gram, protein: 4.1 wt %, carbohydrate: 78 wt %, fat: 2 wt %) and monitored regularly for up to 56 days after birth. Mice weaned on the low-protein, low-fat diet have been treated 5 times a week with either the placebo composition or the composition comprising mifamurtide as prepared in point 1.1 above. At the end of the experiment, the food and bedding were removed at 8 a.m. and the mice have been sacrificed after 5 hours of fasting by isoflurane inhalation and cervical dislocation. All animals have been sacrificed within one hour between 1 and 2 p.m.
# Each of the compositions has been administered by pipette to the tongue of the mouse. The mouse has been held until the composition had been swallowed completely.
# The tests were carried out on male mice with each of the above compositions P, A, AB and B, according to the protocol indicated in example 1, point 1.1 above (56-day period).
# The daily treatment dose was 30 μL of composition P (Placebo) or 25 μg MDP alone in 30 μL of placebo (composition A), or 25 μg MDP and 2.10^8 CFU of Lactiplantibacillus plantarum strain WJL bacteria in 30 μL of placebo (composition AB) or 2.10^8 CFU of Lactiplantibacillus plantarum strain WJL bacteria in 30 μL of placebo (composition B). […]
# [2] = system: IGF-1; test: circulating IGF-1 level in serum, Mouse/Rat IGF-1 Quantikine ELISA; settings: serum at day 56, oral, vs placebo
# Method: Conventional C57B1/6j laboratory mice have been bred in the Gnotobiology Laboratory for more than 10 generations. Mice have been maintained in IVC cages (Tecniplast, Italy), exposed to 12:12 h light-dark cycles, supplied with tap water and fed ad libitum with sterile diet V1124-300 (Ssniff Spezialdiaten GmbH) (irradiated −25 kGy, Bioster, Czech Republic). The mice have been mated and after delivery, the litter size was reduced to 6 pups per mother. On day 21, male mice have been weaned on the experimental low-protein, low-fat diet (3.5 kcal/gram, protein: 4.1 wt %, carbohydrate: 78 wt %, fat: 2 wt %) and regularly monitored until 56 days after birth (adult age in mice). […]
# At the end of the experiment, the blood has been collected and left to coagulate at room temperature for 2 hours. […] IGF-1 levels have been measured using the Mouse/Rat IGF-1 Quantikine ELISA kit (R&D systems) according to the manufacturer's instructions. Data have been analysed using the following statistical test: One way ANOVA with Tukey's multiple comparisons test.
# Conventional C57B1/6j laboratory mice have been bred in the Gnotobiology Laboratory for more than 10 generations. […] On day 21, male mice have been weaned on the experimental low-protein, low-fat diet (3.5 kcal/gram, protein: 4.1 wt %, carbohydrate: 78 wt %, fat: 2 wt %) and monitored regularly for up to 56 days after birth. […]
# [3] = system: chronically undernourished mouse model; test: femur and tibia bone length in chronically undernourished mouse model; settings: at sacrifice day 56, oral, vs placebo
# Method: as §1, §2, §3
# Conventional C57B1/6j laboratory mice have been bred in the Gnotobiology Laboratory for more than 10 generations. Mice have been maintained in IVC cages (Tecniplast, Italy), exposed to 12:12 h light-dark cycles, supplied with tap water and fed ad libitum with sterile diet V1124-300 (Ssniff Spezialdiäten GmbH) (irradiated −25 kGy, Bioster, Czech Republic). The mice have been mated and after delivery the litter size was reduced to 6 pups per mother. On day 21, male mice have been weaned on the experimental low-protein, low-fat diet (3.5 kcal/gram, protein: 4.1 wt %, carbohydrate: 78 wt %, fat: 2 wt %) and monitored regularly for up to 56 days after birth. […]
# [4] = Example 1, MDP 25 μg or murabutide 28 μg in 30 μL
# [5] = Example 1, 5 times a week, MDP 25 μg or murabutide 28 μg in 30 μL
# [6] = Example 2, Mifamurtide 62.5 μg/day in 30 μL
Molecule,"growth rate [1, 4]","relative growth (% length gain, day 21 = 100%) [1, 4]","total height [1, 4]",skeletal growth (linear or longitudinal) [1],"circulating IGF1 level [2, 5]","femur size [3, 5]","length of the tibia [3, 5]","growth rate [1, 6]","relative growth (% length gain, day 21 = 100%) [1, 6]","total height [1, 6]","circulating IGF1 level [2, 6]","size of the femur [3, 6]","size of the tibia [3, 6]"
"CCCCOC(=O)[C@@H](CCC(N)=O)NC(=O)[C@H](C)NC(=O)[C@@H](C)O[C@H]1[C@H](O)[C@@H](CO)OC(O)[C@@H]1NC(C)=O (some centres unmarked) [murabutide, muramyl dipeptide butyl ester]",significantly increased,significantly increased,significantly increased,positive effect,significantly increased,positive trend in murabutide treatment that did not reach statistical significance,positive trend of increased growth,,,,,,
muramyl tripeptide phosphatidyl ethanolamine [Mifamurtide],,,,positive effect,,,,significantly increased,significantly increased,significantly increased,significantly increased,significantly increased,significantly increased
